Measured values as given in ChEMBL document CHEMBL5137134, “Developing the Natural Prenylflavone Artocarpin from Artocarpus hirsutus as a Potential Lead Targeting Pathogenic, Multidrug-Resistant Staphylococcus aureus, Persisters and Biofilms with No Detectable Resistance” (J Nat Prod, 2022).
≈ marks a conversion by molar mass, not a printed value. Calls of active or inactive are those of the source. The calls are words filed in the database; no cut-off is given here.

Assays:
Staphylococcus aureus [1] = test: Antibacterial activity against gentamycin/linezolid/methicillin/trimeth/sulfa resistant Staphylococcus aureus NRS 119 assessed as reduction in bacterial growth incubated for 16 to 18 hrs by broth microdilution method; type: functional; settings: time 16-18 hrs
Staphylococcus aureus [2] = test: Synergistic antibacterial activity against Staphylococcus aureus ATCC 29213 assessed as reduction in bacterial growth incubated for 24 hrs in presence of linezolid by checkerboard method; type: functional
Staphylococcus aureus [3] = test: Bactericidal activity against Staphylococcus aureus ATCC 29213 assessed as visible cell destruction at 2.5 times MIC after 30 mins by scanning electron microscopy analysis; type: functional, organism-based
Staphylococcus aureus [4] = test: Synergistic antibacterial activity against Staphylococcus aureus ATCC 29213 at 1 time MIC after 24 hrs in presence of linezolid by time kill assay; type: functional
Staphylococcus aureus [5] = test: Antibacterial activity against methicillin/levoflaxacin/vancomycin/meropenem/gentamycin/spectinomycin/teicoplanin resistant Staphylococcus aureus VRS 12 assessed as reduction in bacterial growth incubated for 16 to 18 hrs by broth microdilution method; type: functional; settings: time 16-18 hrs
[6] = Cytotoxicity against African green monkey Vero cells after 72 hrs by MTT assay; type: toxicity, cell-based; settings: chlorocebus sabaeus
Staphylococcus aureus [7] = test: Antibacterial activity against Staphylococcus aureus ATCC 29213 infected in BALB/c mouse neutropenic thigh infection model assessed as reduction in thigh bacterial load at 50 mg/kg, ip pre-infected with bacteria for 3 hrs followed by compound addition twice at a interval of 3 hrs and measured after 24 hrs; type: functional
Staphylococcus aureus [8] = test: Synergistic antibacterial activity against Staphylococcus aureus ATCC 29213 assessed as reduction in bacterial growth incubated for 24 hrs in presence of meropenem by checkerboard method; type: functional
Staphylococcus aureus [9] = test: Synergistic antibacterial activity against Staphylococcus aureus ATCC 29213 assessed as fractional inhibitory concentration incubated for 24 hrs in presence of gentamycin by checkerboard method; type: functional
Staphylococcus aureus [10] = test: Antibacterial activity against methicillin/levoflaxacin/meropenem resistant Staphylococcus aureus NRS 193 assessed as reduction in bacterial growth incubated for 16 to 18 hrs by broth microdilution method; type: functional; settings: time 16-18 hrs
Enterococcus [11] = test: Antibacterial activity against vancomycin/methicillin/levoflaxacin/minocycline resistant Enterococcus NR 31912 assessed as reduction in bacterial growth incubated for 16 to 18 hrs by broth microdilution method; type: functional; settings: time 16-18 hrs
Escherichia coli [12] = test: Antibacterial activity against Escherichia coli ATCC 25922 assessed as reduction in bacterial growth incubated for 16 to 18 hrs in presence of PMBN by broth microdilution method; type: functional; settings: time 16-18 hrs
Staphylococcus aureus [13] = test: Antibacterial activity against methicillin/levoflaxacin/vancomycin/meropenem/gentamycin/spectinomycin/teicoplanin resistant Staphylococcus aureus VRS 4 assessed as reduction in bacterial growth incubated for 16 to 18 hrs by broth microdilution method; type: functional; settings: time 16-18 hrs
Staphylococcus aureus [14] = test: Post antibiotic effect against Staphylococcus aureus ATCC 29213 at 1 time MIC incubated for 1 hr followed by replacement with drug free medium and measured every 1 hr (reference value: 0 hr); type: functional
Staphylococcus aureus [15] = test: Antibiofilm activity against Staphylococcus aureus ATCC 29213 assessed as reduction in preformed bacterial biofilm mass at 1 time MIC incubated for 24 hrs by crystal violet staining based microtiter plate reader assay; type: functional; parameters: scale not given: the % may be the effect or the level left
Staphylococcus aureus [16] = test: Synergistic antibacterial activity against Staphylococcus aureus ATCC 29213 at 1 time MIC after 24 hrs in presence of gentamicin by time kill assay; type: functional
Staphylococcus aureus [17] = test: Synergistic antibacterial activity against Staphylococcus aureus ATCC 29213 assessed as reduction in bacterial growth incubated for 24 hrs in presence of vancomycin by checkerboard method; type: functional
Staphylococcus aureus [18] = test: Synergistic antibacterial activity against Staphylococcus aureus ATCC 29213 assessed as reduction in bacterial growth incubated for 24 hrs in presence of gentamycin by checkerboard method; type: functional
Staphylococcus aureus [19] = test: Synergistic antibacterial activity against Staphylococcus aureus ATCC 29213 assessed as fractional inhibitory concentration incubated for 24 hrs in presence of minocycline by checkerboard method; type: functional
Staphylococcus aureus [20] = test: Bactericidal activity against Staphylococcus aureus ATCC 29213 assessed as reduction in log10 CFU at 2.5 times MIC after 5 mins by time kill assay; type: functional
Staphylococcus aureus [21] = test: Synergistic antibacterial activity against Staphylococcus aureus ATCC 29213 assessed as fractional inhibitory concentration incubated for 24 hrs in presence of vancomycin by checkerboard method; type: functional
Staphylococcus aureus [22] = test: Synergistic antibacterial activity against Staphylococcus aureus ATCC 29213 assessed as fractional inhibitory concentration incubated for 24 hrs in presence of meropenem by checkerboard method; type: functional
Staphylococcus aureus [23] = test: Synergistic antibacterial activity against Staphylococcus aureus ATCC 29213 assessed as fractional inhibitory concentration incubated for 24 hrs in presence of ceftazidime by checkerboard method; type: functional
Acinetobacter baumannii [24] = test: Antibacterial activity against Acinetobacter baumannii BAA 1605 assessed as reduction in bacterial growth incubated for 16 to 18 hrs by broth microdilution method; type: functional; settings: time 16-18 hrs
Staphylococcus aureus [25] = test: Antibacterial activity against methicillin/levoflaxacin/meropenem resistant Staphylococcus aureus NRS 191 assessed as reduction in bacterial growth incubated for 16 to 18 hrs by broth microdilution method; type: functional; settings: time 16-18 hrs
Acinetobacter baumannii [26] = test: Antibacterial activity against Acinetobacter baumannii BAA 1605 assessed as reduction in bacterial growth incubated for 16 to 18 hrs in presence of PMBN by broth microdilution method; type: functional; settings: time 16-18 hrs
Enterococcus [27] = test: Antibacterial activity against vancomycin sensitive/methicillin resistant Enterococcus NR 31886 assessed as reduction in bacterial growth incubated for 16 to 18 hrs by broth microdilution method; type: functional; settings: time 16-18 hrs
Staphylococcus aureus [28] = test: Bactericidal activity against Staphylococcus aureus ATCC 29213 assessed as reduction in log10 CFU at 1 time MIC after 1 hr by time kill assay; type: functional
Escherichia coli [29] = test: Antibacterial activity against Escherichia coli ATCC 25922 assessed as reduction in bacterial growth incubated for 16 to 18 hrs by broth microdilution method; type: functional; settings: time 16-18 hrs
Enterococcus [30] = test: Antibacterial activity against Enterococcus NR 31903 assessed as reduction in bacterial growth incubated for 16 to 18 hrs by broth microdilution method; type: functional; settings: time 16-18 hrs
Staphylococcus aureus [31] = test: Bactericidal activity against Staphylococcus aureus ATCC 29213 assessed as decrease in intracellular ATP level after 1 hr by ATP bioluminescence assay; type: functional, organism-based; settings: DDE = dose-dependent effect
Staphylococcus aureus [32] = test: Synergistic antibacterial activity against Staphylococcus aureus ATCC 29213 assessed as fractional inhibitory concentration incubated for 24 hrs in presence of daptomycin by checkerboard method; type: functional
Staphylococcus aureus [33] = test: Synergistic antibacterial activity against Staphylococcus aureus ATCC 29213 assessed as reduction in bacterial growth incubated for 24 hrs in presence of minocycline by checkerboard method; type: functional
Staphylococcus aureus [34] = test: Synergistic antibacterial activity against Staphylococcus aureus ATCC 29213 assessed as reduction in bacterial growth incubated for 24 hrs in presence of daptomycin by checkerboard method; type: functional
Staphylococcus aureus [35] = test: Bactericidal activity against Staphylococcus aureus ATCC 29213 assessed as reduction in log10 CFU at 10 times MIC after 5 mins by time kill assay; type: functional
Enterococcus [36] = test: Antibacterial activity against vancomycin sensitive/methicillin resistant Enterococcus NR 31887 assessed as reduction in bacterial growth incubated for 16 to 18 hrs by broth microdilution method; type: functional; settings: time 16-18 hrs
Staphylococcus aureus [37] = test: Antibacterial activity against Staphylococcus aureus ATCC 29213 infected in mouse J774A.1 cells assessed as reduction in intracellular bacterial cells at 5 times MIC incubated for 24 hrs followed by re-plating on TSA plate and measured after 18 to 24 hrs; type: functional

COc1cc2oc(-c3ccc(O)cc3O)c(CC=C(C)C)c(=O)c2c(O)c1/C=C/C(C)C [ARTOCARPIN]
MIC (Staphylococcus aureus [1]): 4 µg/mL (≈ 9.16 µM) | MIC (Staphylococcus aureus [2]): 1 µg/mL | Activity (Staphylococcus aureus [3]): Active | Activity (Staphylococcus aureus [4]): 4 log10CFU/ml | MIC (Staphylococcus aureus [5]): 4 µg/mL (≈ 9.16 µM) | CC50 at 72 h [6]: 80 µg/mL (≈ 183 µM) | Activity (Staphylococcus aureus [7]): 0.6 log10CFU/g | MIC (Staphylococcus aureus [8]): 2 µg/mL | FIC (Staphylococcus aureus [9]): 0.015 | MIC (Staphylococcus aureus [10]): 4 µg/mL (≈ 9.16 µM) | MIC (Enterococcus [11]): 2 µg/mL (≈ 4.58 µM) | MIC (Escherichia coli [12]): 8 µg/mL | MIC (Staphylococcus aureus [13]): 4 µg/mL (≈ 9.16 µM) | PAE (Staphylococcus aureus [14]): 3 h | Activity (Staphylococcus aureus [15]): 34% | Activity (Staphylococcus aureus [16]): 100% | MIC (Staphylococcus aureus [17]): 2 µg/mL | MIC (Staphylococcus aureus [18]): 0.06 µg/mL | FIC (Staphylococcus aureus [19]): 0.25 | Activity (Staphylococcus aureus [20]): 1.4 log10CFU/ml | FIC (Staphylococcus aureus [21]): 0.5 | FIC (Staphylococcus aureus [22]): 0.5 | FIC (Staphylococcus aureus [23]): 0.5 | MIC (Acinetobacter baumannii [24]): > 128 µg/mL | MIC (Staphylococcus aureus [25]): 4 µg/mL (≈ 9.16 µM) | MIC (Acinetobacter baumannii [26]): 4 µg/mL | MIC (Enterococcus [27]): 2 µg/mL (≈ 4.58 µM) | Activity (Staphylococcus aureus [28]): 3.6 log10CFU/ml | MIC (Escherichia coli [29]): > 128 µg/mL | MIC (Enterococcus [30]): 2 µg/mL (≈ 4.58 µM) | Activity (Staphylococcus aureus [31]): Dde | FIC (Staphylococcus aureus [32]): 0.25 | MIC (Staphylococcus aureus [33]): 1 µg/mL | MIC (Staphylococcus aureus [34]): 1 µg/mL | Activity (Staphylococcus aureus [35]): 2.07 log10CFU/ml | MIC (Enterococcus [36]): 2 µg/mL (≈ 4.58 µM) | Activity (Staphylococcus aureus [37]): 3.25 log10CFU/ml
